Source: PubChem BioAssay AID1259335

Test system: C. elegans L1 growth, INVAPP imaging, 5 days
Assay: anthelmintic effect on nematode larval growth – whole organism, confirmation (AID 1259335)

Compound | EC50
O=C(Nc1ccc2c(c1)B(O)OC2)c1ccccc1C(F)(F)F | 4300 nM
Nc1ccc(C(=O)Nc2ccc(-c3nc4ccccc4o3)cc2)cc1 | 6200 nM
CCc1nn(C)c(C(=O)NCc2ccc(Oc3ccc(C)cc3)cc2)c1Cl | 200 nM
COC(=O)C1=C(C)NC(C)=C(C(=O)OC(C)C)[C@H]1c1cccc2nonc12 | 1600 nM
Cc1cc(C(=O)Nc2ccc(-c3ccccc3)cc2)no1 | 2500 nM
O=C(Nc1ccc(F)c(-c2nc3ncc(-c4ccccc4)cc3[nH]2)c1)N1CCCC1 | 3300 nM
COC(=O)Nc1nc2ccc(C(=O)c3ccccc3)cc2[nH]1 | 1100 nM
